Consider one molecule from PMC8968952, “Modulation of ERCC1-XPF Heterodimerization Inhibition via Structural Modification of Small Molecule Inhibitor Side-Chains” (Frontiers in Oncology, 2022).

Broadly, the Kd is the equilibrium constant for the complex coming apart. Lower therefore signals higher affinity. A word on the IC50: it is the point on the concentration scale where inhibition reaches its midpoint. Low readings indicate inhibition by little substance, high ones a need for much substance.

One data set deals with T1, ERCC1-XPF (Homo sapiens, UniProt Q92889).
T1 construct: the final purity of the full-length ERCC1-XPF heterodimer was determined to be ~35%; His6; made in house; host or cells: E. coli BL21(DE3)
T1 sequence (Q92889 1-916): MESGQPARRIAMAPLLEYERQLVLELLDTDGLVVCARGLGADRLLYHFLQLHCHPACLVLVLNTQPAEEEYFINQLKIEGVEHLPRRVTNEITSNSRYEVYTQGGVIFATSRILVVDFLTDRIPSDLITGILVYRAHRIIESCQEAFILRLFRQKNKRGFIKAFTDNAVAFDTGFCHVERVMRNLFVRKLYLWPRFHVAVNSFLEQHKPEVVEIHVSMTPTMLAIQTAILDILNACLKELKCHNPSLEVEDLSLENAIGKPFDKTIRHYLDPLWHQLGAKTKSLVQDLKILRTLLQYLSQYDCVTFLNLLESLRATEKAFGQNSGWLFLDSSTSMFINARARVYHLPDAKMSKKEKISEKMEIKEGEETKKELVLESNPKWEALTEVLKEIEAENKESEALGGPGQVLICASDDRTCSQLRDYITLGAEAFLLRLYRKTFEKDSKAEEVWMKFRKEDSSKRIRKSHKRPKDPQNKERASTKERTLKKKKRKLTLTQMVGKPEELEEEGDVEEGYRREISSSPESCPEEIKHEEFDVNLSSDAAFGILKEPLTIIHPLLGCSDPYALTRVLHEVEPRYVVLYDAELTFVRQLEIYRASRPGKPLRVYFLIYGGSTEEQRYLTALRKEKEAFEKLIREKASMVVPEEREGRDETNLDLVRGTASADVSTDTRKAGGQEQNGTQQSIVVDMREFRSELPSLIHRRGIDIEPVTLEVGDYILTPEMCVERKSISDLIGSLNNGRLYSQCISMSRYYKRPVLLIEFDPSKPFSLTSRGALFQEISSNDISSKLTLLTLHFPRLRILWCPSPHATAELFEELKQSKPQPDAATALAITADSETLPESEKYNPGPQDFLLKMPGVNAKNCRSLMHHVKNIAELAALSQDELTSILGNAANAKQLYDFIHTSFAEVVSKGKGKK
Nature of the data set: Steady state intrinsic fluorescence quenching binding assay. Particulars: excitation 295 nm, emission 330 nm. On the procedure:
Steady-state fluorescence spectra were measured at room temperature on a PerkinElmer LS-55 spectrofluorometer (Freemont, CA) as previously described ([70]). In studying the effects of inhibitors on protein fluorescence intensities, additions to protein samples were made from inhibitor stock solutions in DMSO, keeping the protein dilution below 3%. Data were plotted using GraphPad Prism version 5.04 software (San Diego, California)
Investigation of the binding of compound 6 to ERCC1-XPF was carried out via intrinsic fluorescence spectroscopy. The tryptophan residues of ERCC1-XPF were irradiated at 295 nm and the emission at 330 nm was monitored. Upon addition of compound 6 quenching of the intrinsic fluorescence of the protein was observed, consistent with ligand binding to a protein. The binding affinity was determined by plotting emission at 330 nm against increasing concentration of compound 6 ( Figure 3C ).

A further data set addresses CYP2C19 (Homo sapiens, UniProt P33261). Nature of the data set: Cytochrome P450 inhibition, CYP2C19. It counts as in vitro ADME. Here is the method: (§1) The ADME (absorption, distribution, metabolism, and excretion) profile of our lead compound 6 was determined by standard protocols carried out by WuXi AppTec (Shanghai) Co (https://www.wuxiapptec.com/). The following tests were conducted: distribution coefficient (log D at pH 7.4), aqueous solubility (Kinetic), metabolic stability in human liver microsomes and cryopreserved human hepatocytes, bidirectional permeability in Caco-2 cells, serum protein binding, and cytochrome P450 (CYP) inhibition (CYP1A2, CYP2C9, CYP2C19, CYP2D6, and CYP3A4-M).

In a further data set the target is CYP2C9 (Homo sapiens, UniProt P11712). Description: Cytochrome P450 inhibition, CYP2C9. It counts as in vitro ADME. Here is the method: as §1
The nature of data set [1]: Metabolic stability in human liver microsomes. Type of data set: in vitro ADME. On the procedure: as §1
For data set [2], the target named is T2, ERCC1-XPF heterodimer in A549 cells (Homo sapiens, UniProt Q92889).
T2 construct: endogenous in cells; host or cells: A549
T2 sequence (Q92889 1-916): T1 sequence (Q92889 1-916)
Nature of the data set: Proximity ligation assay of ERCC1-XPF heterodimerization. Type of data set: cell-based. The conditions noted are these: 2 µM, 24 h. On the procedure: A previously published protocol ([73]) was followed with minor modifications. Briefly, 3 x 10^4 A549 cells were seeded in each well of an 8-well Chamber Slide system (Ibidi. Fitchburg, WI) and allowed to adhere overnight. The cells were then treated with the inhibitor (2 μM prepared from a 1 mM stock in DMSO) or vehicle control (0.2% DMSO) and incubated for 24 h. Samples were fixed and processed for protein proximity ligation analysis (PLA) by the Duolink PLA assay kit (Sigma-Aldrich, Oakville, ON) using an ERCC1 antibody (A73368-100, 1/100; EpiGentek, Farmingdale, NY) and an XPF antibody (LS-C173159, 1/100; LifeSpan BioSciences, Seattle, WA). […] Images of the interaction of ERCC1 and XPF represented as red dots were analyzed using IMARIS 9.7 software (Oxford Instruments). Results are expressed as mean values from at least three experiments conducted independently in duplicate.
To confirm that compound 6 was able to disrupt the interaction between subunits in the ERCC1-XPF heterodimer in cells, we performed PLA using A549 lung cancer cells exposed to 2 µM compound 6 or DMSO vehicle for 24 h. […] In the presence of vehicle (0.2% DMSO) alone we observed an average of 75.7 ± 15.4 foci per cell whereas in the presence of compound 6 only an average of 3.1 ± 2.6 foci per cell were detected. […]

The target of a further data set is CYP3A4-M (Homo sapiens, UniProt P08684). Description: Cytochrome P450 inhibition, CYP3A4-M. Type of data set: in vitro ADME. On the procedure:
as §1

Data set [3] in a line: Metabolic stability in cryopreserved human hepatocytes. Type of data set: in vitro ADME. Here is the method: as §1
The next data set has as its system HCT-116 cells. Description: Clonogenic survival assay, cyclophosphamide treatment. Type of data set: cell-based, human. Here is the method: […] The medium was then replaced with drug and inhibitor-free fresh medium. After incubation for another 9 days to allow for colony formation, the plates were stained with crystal violet, colonies were counted, and plating efficiency and surviving fraction were calculated. Data were plotted using GraphPad Prism version 5.04. software.

The structures appear in SMILES notation. “And” between values parts separate entries of the source, which are not always exact repeats. Equal entries are not always repeated.

Chain of CYP2C9 (P11712 whole entry): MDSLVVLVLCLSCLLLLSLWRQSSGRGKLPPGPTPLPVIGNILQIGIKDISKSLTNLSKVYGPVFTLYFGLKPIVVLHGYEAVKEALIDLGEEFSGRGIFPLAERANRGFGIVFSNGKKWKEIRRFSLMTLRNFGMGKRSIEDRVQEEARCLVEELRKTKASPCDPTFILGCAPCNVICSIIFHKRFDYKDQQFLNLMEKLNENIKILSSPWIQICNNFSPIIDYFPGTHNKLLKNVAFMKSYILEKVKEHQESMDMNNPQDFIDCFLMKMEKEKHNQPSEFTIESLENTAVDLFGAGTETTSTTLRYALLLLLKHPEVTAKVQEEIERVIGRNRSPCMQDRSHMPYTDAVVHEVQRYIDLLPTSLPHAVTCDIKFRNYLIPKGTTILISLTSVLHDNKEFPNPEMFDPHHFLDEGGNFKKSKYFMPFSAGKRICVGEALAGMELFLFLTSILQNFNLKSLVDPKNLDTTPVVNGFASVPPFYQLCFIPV
Chain of CYP2C19 (P33261 whole entry): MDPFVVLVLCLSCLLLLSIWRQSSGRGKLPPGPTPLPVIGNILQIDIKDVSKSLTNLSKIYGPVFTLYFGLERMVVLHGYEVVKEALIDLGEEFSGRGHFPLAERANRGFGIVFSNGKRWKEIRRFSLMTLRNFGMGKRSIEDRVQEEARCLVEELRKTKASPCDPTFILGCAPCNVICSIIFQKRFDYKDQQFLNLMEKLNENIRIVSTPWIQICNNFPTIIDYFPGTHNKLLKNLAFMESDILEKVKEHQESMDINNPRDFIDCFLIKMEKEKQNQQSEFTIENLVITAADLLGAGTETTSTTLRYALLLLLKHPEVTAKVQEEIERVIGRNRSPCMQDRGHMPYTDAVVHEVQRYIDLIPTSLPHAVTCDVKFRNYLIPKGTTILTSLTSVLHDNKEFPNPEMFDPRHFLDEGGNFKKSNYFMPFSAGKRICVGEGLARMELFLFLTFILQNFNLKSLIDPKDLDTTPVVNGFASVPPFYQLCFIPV
Chain of CYP3A4-M (P08684 whole entry): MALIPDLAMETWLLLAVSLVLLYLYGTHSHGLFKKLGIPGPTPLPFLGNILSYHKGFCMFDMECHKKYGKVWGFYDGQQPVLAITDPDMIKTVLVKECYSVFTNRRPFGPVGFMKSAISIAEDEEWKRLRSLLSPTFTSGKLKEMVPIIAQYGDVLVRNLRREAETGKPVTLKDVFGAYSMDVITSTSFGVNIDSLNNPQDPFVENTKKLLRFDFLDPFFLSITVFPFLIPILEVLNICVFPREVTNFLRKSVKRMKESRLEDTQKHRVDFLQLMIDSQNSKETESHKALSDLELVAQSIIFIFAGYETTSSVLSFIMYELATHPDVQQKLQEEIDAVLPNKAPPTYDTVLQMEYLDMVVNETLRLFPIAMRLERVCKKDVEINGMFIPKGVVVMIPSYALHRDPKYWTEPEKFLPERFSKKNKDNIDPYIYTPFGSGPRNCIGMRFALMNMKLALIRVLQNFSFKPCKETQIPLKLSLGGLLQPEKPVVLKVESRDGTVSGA

As for `COc1ccc2nc3cc(Cl)ccc3c(Nc3ccc(O)c(CN4CCN(CCN(C(C)C)C(C)C)CC4)c3)c2c1` [Compound 6], binding at ERCC1-XPF was put at a Kd of 0.14 ± 0.01 µM. The “CYP2C19 inhibition grade (in words)” value on CYP2C19 is “weak inhibitor”. The IC50 against CYP2C19 turned out to be 10.8 µM; on CYP2C9 it was 33.4 µM; on CYP3A4-M, 1.9 µM. In addition, the “CYP2C9 inhibition grade (in words)” value at CYP2C9 is “weak inhibitor”. Also, the “metabolic stability grade, liver microsome assay (in words)” value in data set [1] is “low to moderate metabolic stability”. For the same molecule, the CLint scaled came out at 376 mL/min/kg in data set [1] (human, liver microsomes, read-out: Metabolic stability in human liver microsomes (clearance)) and 33.5 mL/min/kg in data set [3] (human, cryopreserved hepatocytes, read-out: Metabolic stability in cryopreserved human hepatocytes (clearance)). Besides, the “ERCC1-XPF PLA foci per cell” value in data set [2] was 3.1 ± 2.6 foci per cell and 3 foci per cell. Moreover, the “CYP3A4-M inhibition grade (in words)” value at CYP3A4-M was “moderate inhibitor”. The “metabolic stability grade, hepatocyte assay (in words)” value in data set [3] is recorded as “low to moderate metabolic stability”. For the same molecule, the half-life in data set [3] (human, cryopreserved hepatocytes, read-out: Metabolic stability in cryopreserved human hepatocytes T1/2) turned out to be 1.92 h. In addition, in the data set on HCT-116 cells (0.5 μM 6, 10 at 1.0 μM or 0.5 μM), the “sensitization to cyclophosphamide (in words)” value is “sensitized the cells to cyclophosphamide”. Also, the “cell survival with cyclophosphamide” value in the data set on HCT-116 cells (0.5 μM compound, 50 μM cyclophosphamide) came to 62%. In addition, the “cell survival at 250 μM cyclophosphamide (in words)” value in the data set on HCT-116 cells (0.5 μM compound, 250 μM cyclophosphamide) is reported as “almost no cells surviving”.
